Laboratory results taken from PubChem BioAssay AID602211 (Sanford-Burnham Center for Chemical Genomics, 2012).
Activity calls are given as the source filed them.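 The calls were made as follows: active = mean IC50 at or below 10 µM; inactive = the rest.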

Tested on: H9c2 cardiomyocytes, H2O2 protection, ATPLite viability, 2 h
Experiment: protection of H9c2 cardiomyocytes from H2O2 death, dose response, cell-based, ATPLite luminescence, set 2 (AID 602211);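 also: potency is for protection so actives keep ATP signal up against peroxide killing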

SMILES	IC50
COc1ccccc1N1CCN(C(=O)c2ccc3nc(-c4ccco4)c(-c4ccco4)nc3c2)CC1	7.68 µM
Cn1c(=O)[nH]c(=O)c2c1nc(N(CCO)Cc1ccccc1)n2CCCc1ccccc1	11.3 µM (inactive)
COc1ccccc1OP(=O)(Nc1cccnc1)Oc1ccccc1OC	2.28 µM
CCOc1cc(-c2cc(-c3ccc(N)cc3)nc(N)c2C#N)ccc1O	5.99 µM
O=C(Nc1ccccc1)c1nc[nH]c1C(=O)NCCCCCCNC(=O)c1[nH]cnc1C(=O)Nc1ccccc1	5.52 µM
COc1ccc2c(c1OC)c(=O)n1c3ccc(OC(C)C(=O)NCCN4CCOCC4)cc3c3ccnc2c31 (centres undefined)	13.7 µM (inactive)
COc1ccc(C=NNc2nc3c([nH]2)c(=O)n(C)c(=O)n3C)cc1	5.8 µM
O=C(N/N=C/c1ccccn1)c1[nH]c2ccc([N+](=O)[O-])cc2c1-c1ccccc1	2.33 µM
O=C(CN1CCCCC1)Nc1nc(-c2ccc(F)c(F)c2)cs1	> 79 µM (inactive)
COC(=O)c1[nH]c2cc(OC)c(OC)cc2c1/C=N/Nc1ccccc1	6.78 µM
COCCCN(Cc1ccco1)C(=O)Cn1ncc2c([nH]c3ccccc32)c1=O	10.9 µM (inactive)
COc1ccc(C(=O)COC(=O)C(CCCCN2C(=O)C3C4C=CC(C4)C3C2=O)N2C(=O)C3C4C=CC(C4)C3C2=O)cc1 (centres undefined)	4.84 µM
C#CCOc1nc(Nc2cccc([N+](=O)[O-])c2)nc(OCC#C)n1	> 79 µM (inactive)
COc1cc(NC(=O)c2cc3ccccc3cc2OC)ccc1NC(=O)c1cccs1	3.59 µM
COc1ccc(-n2c(/C=C/c3ccc(O)c(OC)c3)nc3ccccc3c2=O)cc1	1.58 µM
COc1ccc(-c2nc(NC(=O)c3ccc(OCC(=O)N4CCOCC4)c(OC)c3)sc2C)cc1	> 79 µM (inactive)
O=C(NCc1ccco1)c1cc(-c2cccnc2)nc2ccc(Cl)cc12	4.95 µM
Cc1cccc(NC(=O)c2oc3ccc(S(=O)(=O)N4CCOCC4)cc3c2C)c1C	3.23 µM
CN(C)S(=O)(=O)n1cc(/C=C(\NC(=O)c2ccccc2F)C(=O)NCCN2CCOCC2)c2ccccc21	30.8 µM (inactive)
COc1cc(C(=O)Nc2ccc(NC(=O)c3ccco3)nc2)cc(OC)c1OC	25.7 µM (inactive)
COc1cc(NC(=O)c2ccco2)c(C(=O)OCC(=O)c2c[nH]c3ccccc23)cc1OC	> 79 µM (inactive)
Cc1nn(-c2ccccc2)nc1C(=O)Nc1cccc(C(=O)NC2CC2)c1	4.37 µM
OC1CCN(c2c3c(nc4cc(-c5cccc(F)c5)nn24)CCCC3)CC1	6.02 µM
c1ccc(N2CCOCC2)c(Nc2nc3ccccc3n3cnnc23)c1	5.28 µM

SMILES	IC50
Cc1[nH]c2ccccc2c1/C=N/NC(=O)c1cc(-c2cccs2)[nH]n1	3.62 µM
COc1cccc(/C=N/Nc2nc3ccccc3n3cnnc23)c1	> 79 µM (inactive)
CC1(C)CC(=O)C2=C(C1)N(CCN1CCOCC1)C1=C(C(=O)CC(C)(C)C1)C2c1ccc(Cl)cc1	9.75 µM
N#Cc1ccccc1S(=O)(=O)N1CCN(c2nc(-c3cccnc3)nc3ccccc23)CC1	> 79 µM (inactive)
COC(=O)c1ccccc1NC(=O)c1nc2nc(C)cc(C)n2n1	31.2 µM (inactive)
COc1cc(-c2cc3nc(NCCOc4ccccc4)ccn3n2)cc(OC)c1OC	7.16 µM
CC(C)(C)OC(=O)N1CCC[C@H]1c1nnc(SCC(=O)Nc2ccc(Br)cc2)o1	5.87 µM
Cc1cc(N)n(-c2nc(-c3cccnc3)nc3ccccc23)n1	16.2 µM (inactive)
CC(C)c1cc(N2CCN(C(=O)c3ccco3)CC2)n2c(nc3ccccc32)c1C#N	44.8 µM (inactive)
CC(=O)Nc1cc(-c2ccc(C(=O)N3CCOCC3)cc2)cn2c(-c3ccc(C(C)=O)cc3)cnc12	> 79 µM (inactive)
O=C(Nc1ccc2c(c1)OCO2)c1cnn2c(C(F)(F)F)cc(-c3ccco3)nc12	2.58 µM
O=C(N/N=C/c1cn(-c2ccccc2)nc1-c1cccnc1)c1ccccc1	12.7 µM (inactive)
COc1cccc(Nc2nc(-c3sc(NC(=O)c4ccco4)nc3C)cs2)c1	7.15 µM
COc1cc(-c2nnc(-c3cc(-c4ccccc4)nc4ccccc34)o2)cc(OC)c1OC	4.14 µM
CCn1c(O)c(/C=N/N=C/c2ccccc2)c2ccc(C3=NNC(=O)CC3)cc21	4.56 µM
COCCn1c(=NC(=O)c2nc3ccccc3s2)sc2cc(S(C)(=O)=O)ccc21	1.4 µM
Cc1cc(C)c(S(=O)(=O)N2CCN(C(=O)c3cc(=O)[nH]c4ccccc34)CC2)c(C)c1	2.94 µM
COc1cc(-c2cnc3c(NC=O)cc(-c4cccnc4)cn23)cc(OC)c1OC	24.6 µM (inactive)
COC(=O)c1cc2ccc(OC)cc2c2cc(OC)c(OC)cc12	> 79 µM (inactive)
C=CCn1cnc2c(c1=O)c1nc3ccccc3nc1n2/N=C/c1cc(OC)c(OC)c(OC)c1	1.09 µM
CC(=O)Nc1cc(-c2cccc(NS(C)(=O)=O)c2)cn2c(-c3cccc(C(C)=O)c3)cnc12	15 µM (inactive)
COc1cc(NC(=O)c2cccc3c(-c4cnn(C)c4)coc23)cc(OC)c1OC	1.56 µM
Cc1ccc2nc(-c3ccccc3)cc(C(=O)NNC(=O)c3csc(N4CCOCC4)n3)c2c1	15 µM (inactive)
COc1cc(NC(=O)c2cc3c(C)nc4ccccc4c3o2)cc(OC)c1OC	3.36 µM

SMILES	IC50
Cc1cc(NC(=O)C2CCCCC2)nc2c1c(=O)oc1ccccc12	23.7 µM (inactive)
Cn1c(=O)c2[nH]c(NN=Cc3cccc(Br)c3)nc2n(C)c1=O	4.39 µM
CCOc1cccc(Nc2cc3n(c(=O)n2)CCc2cc(OC)c(OC)cc2-3)c1	23 µM (inactive)
CC(C)CC(C(=O)NC1CCCCC1)N(Cc1cccs1)C(=O)c1snc(C(N)=O)c1N (centres undefined)	10.2 µM (inactive)
CCOC(=O)C1=C(C)Nc2ccccc2N=C1NC(=O)c1oc2ccccc2c1COC	2.89 µM
COc1ccc(-c2cc3nc(C)cc(N4CCN(C(=O)c5ccoc5)CC4)n3n2)cc1	69.1 µM (inactive)
O=C(NCCN1CCOCC1)c1cnn2c(-c3ccccc3)cc(-c3ccccc3)nc12	> 79 µM (inactive)
COc1cc(-c2cc(C(=O)N3CCN(c4ccccn4)CC3)c3ccccc3n2)cc(OC)c1OC	3.56 µM
COc1ccc(-c2cc(-c3ccc(O)cc3)nc(N)c2C#N)cc1OC	> 79 µM (inactive)
COc1cc(-c2cc(C(=O)OCC(=O)NC3CC3)c3ccccc3n2)cc(OC)c1OC	3.98 µM
NS(=O)(=O)c1ccc(CCNC(=O)c2ccc(C#CC3(O)CCCCC3)cc2)cc1	> 79 µM (inactive)
COc1ccc(Cl)cc1NC(=O)CCS(=O)(=O)c1cc2c(cc1C)NC(=O)CO2	8.29 µM
COc1ccc(-c2cc3nc(-c4ccccc4)cc(N4CCN(C(=O)c5ccoc5)CC4)n3n2)cc1	4.91 µM
COc1cc(/C=N/NC(=O)c2cccnc2)ccc1OS(=O)(=O)c1ccc(F)cc1	3.17 µM
COc1cc(/C=N/NC(=O)c2ccncc2)ccc1OC(=O)c1ccccc1Cl	5.67 µM
O=C(CCCn1c(SCC(=O)c2ccc(O)c(O)c2)nc2ccccc2c1=O)NCC1CCCO1 (centres undefined)	21.7 µM (inactive)
COc1ccc(-c2cc(NC(C)=O)c3ncc(-c4cccc(C(C)=O)c4)n3c2)cc1OC	7.18 µM
CSc1nc2ncc3c(n2n1)CC1c2ccccc2CCN1C3=O (centres undefined)	23 µM (inactive)
CN(C)S(=O)(=O)c1ccc2[nH]cc(/C=C/c3nc4ccccc4c(=O)n3-c3ccccc3)c2c1	1.26 µM
O=C(NC1CCCCC1)C(c1ccc2ncccc2c1)N(Cc1ccccc1)C(=O)c1ccc2c(c1)OCCO2 (centres undefined)	5.54 µM
Cc1cccc(NC(=O)c2nc[nH]c2C(=O)NCCCCNC(=O)c2[nH]cnc2C(=O)Nc2cccc(C)c2)c1	1.39 µM
O=C(NCC(=O)N(Cc1ccccc1)C(C(=O)NC1CCCCC1)c1ccco1)c1ccco1 (centres undefined)	38.7 µM (inactive)
C[C@H](CO)N1C[C@H](C)[C@@H](CN(C)S(=O)(=O)c2ccc(F)cc2)Oc2ccc(NC(=O)Nc3ccc4c(c3)OCO4)cc2C1=O	10.1 µM (inactive)
Cc1cc(C)c(C)c(S(=O)(=O)N2CCN(C(=O)c3cc(=O)[nH]c4ccccc34)CC2)c1C	0.998 µM

SMILES	IC50
CC(=O)NCc1ccc(-c2csc(NC(=O)CCc3nc4ccccc4c(=O)[nH]3)n2)s1	4.3 µM
CCOC(=O)c1cnc(Nc2nc3ccccc3o2)nc1CSc1nnc(C)s1	12.8 µM (inactive)
COc1cc(C(=O)N/N=C/c2ccc(OC(=O)c3cccc(C)c3)c(OC)c2)ccc1O	3.16 µM
O=C(Nc1cccnc1)c1sc(Nc2ccccc2)nc1-c1ccccc1	8.72 µM
COc1ccc(C=CC(=O)c2ccc3cc(OC)c(OC)cc3c2)cc1OC	2.47 µM
CC(OC(=O)c1cc(-c2cccnc2)nc2ccccc12)C(=O)Nc1ccc2ccccc2c1 (centres undefined)	5.97 µM
COc1ccc(-c2cc(C(=O)NNC(=O)c3csc(N4CCOCC4)n3)c3ccccc3n2)cc1	14.1 µM (inactive)
COc1ccc(/C=C/C(=O)c2ccccc2O)cc1CN1CCOCC1	7.14 µM
CC(=O)c1ccc(-c2cnc3c(NC=O)cc(-c4cccc(NS(C)(=O)=O)c4)cn23)cc1	8.18 µM
CCN(CC)C(=O)c1ccc2c3c(cccc13)C(=O)N(CCc1ccc(OC)c(OC)c1)C2=O	> 79 µM (inactive)
COc1ccc(CCn2c(=N)c(C(=O)NCC3CCCO3)cc3c(=O)n4cccc(C)c4nc32)cc1OC (centres undefined)	2.6 µM
CCN1C(=O)/C(=C/c2nc3ccccc3c(=O)[nH]2)c2ccccc21	7.84 µM
COC(=O)c1cccc(S(=O)(=O)N(Cc2ccco2)Cc2cc3cc(OC)ccc3[nH]c2=O)c1	42.2 µM (inactive)
COCCn1cnc2c(c1=O)c1nc3ccccc3nc1n2/N=C/c1cccc(OC)c1	13.6 µM (inactive)
COc1cc2c(C#CCCCO)c(-c3ccsc3)oc(=O)c2cc1OC	2.3 µM
COc1cc(OC)c(-c2nn3c(-c4ccco4)nnc3s2)cc1OC	4.56 µM
CC(C)(C)OC(=O)N1CCC(NC(=O)c2nc[nH]c2C(=O)NCC(=O)OCc2ccccc2)CC1	1.08 µM
COc1ccc(CN(C)C(=O)C(Cc2ccccc2)NC(=O)c2ccccc2)cc1F (centres undefined)	2.67 µM
Nc1c(C(=O)N/N=C/c2cccnc2)oc2nc(-c3ccco3)cc(-c3ccco3)c12	2.45 µM
COc1ccc(-c2cnc3c(NC=O)cc(-c4cccc(NS(C)(=O)=O)c4)cn23)cc1OC	5.59 µM
COC(=O)c1ccc(C(C(=O)NCc2ccccc2)N(Cc2cccs2)C(=O)c2cnccn2)cc1 (centres undefined)	5.53 µM
Cc1cccc(NC(=O)c2nc[nH]c2C(=O)NCCCNC(=O)c2[nH]cnc2C(=O)Nc2cccc(C)c2)c1	0.729 µM
